Test results: the supplement of paper PMC11451515

Key:
Conditions in all cases: 48 h
SEM cells [1] = experiment: AUC of viability dose-response curve (% viability x log10 dose units); higher = less sensitive
Outline: (§1)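 Area under the curve was integrated by trapezoidal rule from a log-logistic fit of normalised viability, with curves exceeding full viability scaled and quality-control failures removed. The fit had four parameters over log10 doses. Viability came from CellTiter-Glo One luminescence, normalised per plate to DMSO and cell-free wells, after leukemia cells adapted to each medium (500 or 1000 cells/well, 1536-well plates) were exposed to library compounds in DMSO for 48 h at 37°C. The 11 threefold doses ran from 47 μM to 0.79 nM.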

NOMO1 [2] = experiment: as above
Outline: as §1

P12-Ichikawa [3] = experiment: as above
Outline: as §1

SEM cells [4] = experiment: cell viability relative to DMSO control; higher = less cytotoxic
Outline: (§2)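 Viability is expressed as a percentage of DMSO wells within each plate, and cell-free wells serve as background. Seeding densities in the 1536-well plates (5 μl) were 500 cells/well for NOMO1 or SEM leukemia cells and 1000 cells/well for P12-Ichikawa. Each line was adapted for at least four passages in each medium. Library compounds in DMSO were pin-dosed at 47 μM to 0.79 nM (11 points, threefold), and CellTiter-Glo One luminescence was read after 48 h at 37°C.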

NOMO1 [5] = experiment: as above
Outline: as §2

P12-Ichikawa [6] = experiment: as above
Outline: as §2

NC(=O)c1ccc2[nH]c(-c3ccc(Oc4ccc(Cl)cc4)cc3)nc2c1
AUC of viability dose-response curve
Conditions	NOMO1 [2]	P12-Ichikawa [3]	SEM cells [1]
HPLM + 10% dialyzed FBS	457	463	470
RPMI 5 mM glucose + 10% FBS	472	454	446
RPMI 5 mM glucose + 10% dialyzed FBS	475	453	463

SEM cells [4], HPLM + 10% dialyzed FBS
Conditions	cell viability [%]
0.000781 µM	115
0.00234 µM	113
0.00702 µM	136
0.0211 µM	121
0.0632 µM	117
0.19 µM	65.4
0.569 µM	133
1.71 µM	124
5.12 µM	134
15.4 µM	118
46.1 µM	91.9

CNC(=O)N1\N=C(\C2=CC=C(N)C=C2)C3=CC4=C(OCO4)C=C3CC1C (centres undefined)
AUC of viability dose-response curve
Conditions	NOMO1 [2]	P12-Ichikawa [3]	SEM cells [1]
HPLM + 10% dialyzed FBS	440	449	413
RPMI 5 mM glucose + 10% FBS	451	447	400
RPMI 5 mM glucose + 10% dialyzed FBS	449	449	392

cell viability [%], SEM cells [4]
Conditions	HPLM + 10% dialyzed FBS	RPMI 5 mM glucose + 10% FBS
0.000781 µM	111	120
0.00234 µM	113	134
0.00702 µM	130	124
0.0211 µM	121	145
0.0632 µM	142	138
0.19 µM	133	134
0.569 µM	122	132
1.71 µM	129	129
5.12 µM	98.3	79.9
15.4 µM	43.8	47.1
46.1 µM	8.25	8.13

CN(C)c1cc(NC(=O)CNC(C)(C)C)c(O)c2c1C[C@H]1C[C@H]3[C@H](N(C)C)C(O)=C(C(N)=O)C(=O)[C@@]3(O)C(O)=C1C2=O
AUC of viability dose-response curve
Conditions	NOMO1 [2]	P12-Ichikawa [3]	SEM cells [1]
HPLM + 10% dialyzed FBS	466	457	452
RPMI 5 mM glucose + 10% FBS	471	470	453
RPMI 5 mM glucose + 10% dialyzed FBS	457	454	436

Cc1nc(Nc2n[nH]c3c2CN(C(=O)N[C@H](CN(C)C)c2ccccc2)C3(C)C)c2sccc2n1
AUC of viability dose-response curve
Conditions	HPLM + 10% dialyzed FBS	RPMI 5 mM glucose + 10% FBS	RPMI 5 mM glucose + 10% dialyzed FBS
NOMO1 [2]	262	277	266
P12-Ichikawa [3]	317	258	266

cell viability [%]
Conditions	NOMO1 [5]	P12-Ichikawa [6]	SEM cells [4]
HPLM + 10% dialyzed FBS, 0.000781 µM	89.4	84.9	72.2
HPLM + 10% dialyzed FBS, 0.00234 µM	82.7	84.7	70.6
HPLM + 10% dialyzed FBS, 0.00702 µM	70.7	76.4	51.6
HPLM + 10% dialyzed FBS, 0.0211 µM	74.1	81	66.4
HPLM + 10% dialyzed FBS, 0.0632 µM	65.7	75.1	52.6
HPLM + 10% dialyzed FBS, 0.19 µM	53.8	73.5	48.5
HPLM + 10% dialyzed FBS, 0.569 µM	54.3	72.6	36.6
HPLM + 10% dialyzed FBS, 1.71 µM	40.2	53.9	23.8
HPLM + 10% dialyzed FBS, 5.12 µM	41.2	52.3	15.7
HPLM + 10% dialyzed FBS, 15.4 µM	23.1	45.4	2.46
HPLM + 10% dialyzed FBS, 46.1 µM	2.58	15.6	4.3
RPMI 5 mM glucose + 10% FBS, 0.000781 µM	82.6	82.3	91.2
RPMI 5 mM glucose + 10% FBS, 0.00234 µM	85	81.7	85.9
RPMI 5 mM glucose + 10% FBS, 0.00702 µM	91.1	70.8	62.8
RPMI 5 mM glucose + 10% FBS, 0.0211 µM	82.6	60	79.1
RPMI 5 mM glucose + 10% FBS, 0.0632 µM	71.8	62.3	60.3
RPMI 5 mM glucose + 10% FBS, 0.19 µM	54.2	59.3	47
RPMI 5 mM glucose + 10% FBS, 0.569 µM	53.2	53.4	46
RPMI 5 mM glucose + 10% FBS, 1.71 µM	40.5	38.5	25.7
RPMI 5 mM glucose + 10% FBS, 5.12 µM	38.7	41.4	15.2
RPMI 5 mM glucose + 10% FBS, 15.4 µM	25.6	27.7	1.75
RPMI 5 mM glucose + 10% FBS, 46.1 µM	2.97	12.8	3.09
RPMI 5 mM glucose + 10% dialyzed FBS, 0.000781 µM	80.3	80	82.2
RPMI 5 mM glucose + 10% dialyzed FBS, 0.00234 µM	86.9	81.4	73
RPMI 5 mM glucose + 10% dialyzed FBS, 0.00702 µM	78.3	77.2	70.1
RPMI 5 mM glucose + 10% dialyzed FBS, 0.0211 µM	72.6	72.1	82.1
RPMI 5 mM glucose + 10% dialyzed FBS, 0.0632 µM	55.8	63.6	64.2
RPMI 5 mM glucose + 10% dialyzed FBS, 0.19 µM	58	56	55.1
RPMI 5 mM glucose + 10% dialyzed FBS, 0.569 µM	60.1	51.4	50
RPMI 5 mM glucose + 10% dialyzed FBS, 1.71 µM	38.9	40.6	30.4
RPMI 5 mM glucose + 10% dialyzed FBS, 5.12 µM	40.9	38.8	21.4
RPMI 5 mM glucose + 10% dialyzed FBS, 15.4 µM	31	32.3	2.4
RPMI 5 mM glucose + 10% dialyzed FBS, 46.1 µM	2.28	15.8	3.71

CCNC(=O)Nc1ccc2ncc(Nc3ccc(C)cc3)nc2n1
AUC of viability dose-response curve
Conditions	NOMO1 [2]	P12-Ichikawa [3]	SEM cells [1]
HPLM + 10% dialyzed FBS	430	459	437
RPMI 5 mM glucose + 10% FBS	453	465	418
RPMI 5 mM glucose + 10% dialyzed FBS	452	464	402

cell viability [%], SEM cells [4]
Conditions	HPLM + 10% dialyzed FBS	RPMI 5 mM glucose + 10% FBS
0.000781 µM	129	119
0.00234 µM	120	139
0.00702 µM	115	117
0.0211 µM	113	119
0.0632 µM	118	124
0.19 µM	109	98.3
0.569 µM	113	124
1.71 µM	108	114
5.12 µM	110	93.3
15.4 µM	68.1	59.3
46.1 µM	34.8	21.2

CC1=CC=C(C=C1)\C2=N\C3=CC=C(Cl)C=C3OC2
AUC of viability dose-response curve
Conditions	NOMO1 [2]	P12-Ichikawa [3]	SEM cells [1]
HPLM + 10% dialyzed FBS	451	439	427
RPMI 5 mM glucose + 10% FBS	439	424	418
RPMI 5 mM glucose + 10% dialyzed FBS	457	440	392

C[C@]12CC(=O)[C@H]3[C@@H](CC\C4=C\C(=O)\C=C/[C@]34C)[C@@H]1CC[C@]2(O)C(=O)CO
AUC of viability dose-response curve
Conditions	NOMO1 [2]	P12-Ichikawa [3]	SEM cells [1]
HPLM + 10% dialyzed FBS	472	458	470
RPMI 5 mM glucose + 10% FBS	461	461	457
RPMI 5 mM glucose + 10% dialyzed FBS	471	438	469
